Data: patent US11912693B2, “Compounds for modulating S1P1 activity and methods of using the same” (TREVENA, INC., priority 2017, dated 2024)

What was measured:
[1] = target: T1, human sphingosine-1-phosphate receptor 1 (S1P1) (Homo sapiens (Human), UniProt P21453); assay: Inhibition of cAMP production (HTRF cAMP HiRange), S1P1 CHO-K1 cells; format: cell-based; conditions: for hS1P1 cAMP pEC50: inhibition of cAMP production, S1P1 CHO-K1 cells; for Emax: CHO-K1, efficacy (SPAN) normalized to fingolimod, read-out: hS1P1 cAMP SPAN
Procedure, shortened: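 CHO-K1 cells stably co-expressing human S1P1 (C-terminal Prolink tag) and EA-β-arrestin2 were grown in AssayComplete Media 6 at 37° C. and 5% CO2, plated, and incubated overnight. Agonist-driven inhibition of intracellular cAMP was read by TR-FRET with the HTRF cAMP HiRange kit on a PheraStar reader. Potency is pEC50, and efficacy (SPAN) is normalized to fingolimod.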
Target sequence in this assay (P21453 whole entry, looked up): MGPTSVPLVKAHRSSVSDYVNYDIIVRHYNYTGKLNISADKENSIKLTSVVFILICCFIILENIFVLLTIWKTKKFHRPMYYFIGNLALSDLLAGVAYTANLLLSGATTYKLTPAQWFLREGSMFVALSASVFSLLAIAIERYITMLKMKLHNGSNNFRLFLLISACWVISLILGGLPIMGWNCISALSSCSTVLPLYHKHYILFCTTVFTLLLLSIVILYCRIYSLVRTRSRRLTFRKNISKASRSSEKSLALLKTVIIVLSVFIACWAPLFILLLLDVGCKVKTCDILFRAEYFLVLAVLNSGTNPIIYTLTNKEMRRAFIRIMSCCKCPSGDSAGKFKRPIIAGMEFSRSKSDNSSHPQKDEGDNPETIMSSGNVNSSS

[2] = target: T1, human sphingosine-1-phosphate receptor 1 (S1P1); assay: β-Arrestin2 recruitment assay (PathHunter), S1P1 CHO-K1 cells; format: cell-based; conditions: for hS1P1 B-arrestin2 pEC50: β-arrestin2 recruitment, S1P1 CHO-K1 cells; for Emax: CHO-K1, efficacy (SPAN) normalized to fingolimod, read-out: hS1P1 B-arrestin2 SPAN
Procedure, shortened: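 Enzyme-fragment complementation read-out: agonist-driven β-arrestin2 binding to ProLink-tagged human S1P1 in stable CHO-K1 cells restores β-galactosidase, measured 1 h at room temperature after a 60 min 37° C. compound incubation. Potency as pEC50, efficacy relative to fingolimod (SPAN).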
Target sequence in this assay (P21453 whole entry, looked up): as above
Target sequence in this assay (P32121 whole entry partner, looked up): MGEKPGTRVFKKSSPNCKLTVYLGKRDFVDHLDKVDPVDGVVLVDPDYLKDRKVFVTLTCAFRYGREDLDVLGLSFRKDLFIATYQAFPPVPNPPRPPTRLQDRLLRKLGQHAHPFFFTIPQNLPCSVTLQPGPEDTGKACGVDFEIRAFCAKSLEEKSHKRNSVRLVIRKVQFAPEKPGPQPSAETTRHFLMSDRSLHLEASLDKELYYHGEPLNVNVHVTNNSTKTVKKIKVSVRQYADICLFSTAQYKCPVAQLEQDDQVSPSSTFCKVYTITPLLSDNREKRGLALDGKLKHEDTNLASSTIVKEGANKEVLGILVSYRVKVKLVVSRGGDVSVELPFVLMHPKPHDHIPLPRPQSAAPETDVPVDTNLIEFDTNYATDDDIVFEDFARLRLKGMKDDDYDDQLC

| SMILES | hS1P1 cAMP pEC50 [1] | hS1P1 B-arrestin2 pEC50 [2] | Emax [1] [%] | Emax [2] [%] |
| --- | --- | --- | --- | --- |
| COc1ccccc1-c1nsc(-c2ccc3c(c2)nnn3C(C)C)n1 [Compound 213, 5-[3-(2-methoxyphenyl)-1,2,4-thiadiazol-5-yl]-1-(propan-2-yl)-1H-1,2,3-benzotriazole] | <6.5 | <5 | – | – |
| O=C1CC2(CCOCC2)Oc2ccc(-c3nc(-c4cccnc4)no3)cc21 [Compound 214, 6-[3-(pyridin-3-yl)-1,2,4-oxadiazol-5-yl]-3,4-dihydrospiro[1-benzopyran-2,4′-oxane]-4-one] | <6.5 | <5 | < 75 | < 75 |
| CC(C)n1nnc2cc(-c3ncc(-c4ccccc4C(F)(F)F)s3)ccc21 [Compound 215, 2-(1-isopropyl-1H-benzo[d][1,2,3]triazol-5-yl)-5-(2-(trifluoromethyl)phenyl)thiazole] | <6.5 | <5 | < 75 | < 75 |
| Cc1ccccc1-c1cnc(-c2ccc3c(c2)nnn3C(C)C)s1 [Compound 216, 2-(1-isopropylbenzotriazol-5-yl)-5-(o-tolyl)thiazole] | <6.5 | <5 | < 75 | < 75 |
| O=C1CC2(CCC(F)(F)CC2)Oc2ccc(-c3nc(-c4ccncc4)no3)cc21 [Compound 217, 4′,4′-difluoro-6-[3-(pyridin-4-yl)-1,2,4-oxadiazol-5-yl]-3,4-dihydrospiro[1-benzopyran-2,1′-cyclohexane]-4-one] | <6.5 | <5 | – | – |
| CCCC1(CCC)CC(=O)c2cc(-c3nc(-c4cccnc4)no3)ccc2O1 [Compound 218, 2,2-dipropyl-6-[3-(pyridin-3-yl)-1,2,4-oxadiazol-5-yl]-3,4-dihydro-2H-1-benzopyran-4-one] | <6.5 | <5 | – | – |
| CC(C)n1nnc2cc(-c3ncc(-c4ccccc4Br)s3)ccc21 [Compound 220, 5-(2-bromophenyl)-2-(1-isopropylbenzotriazol-5-yl)thiazole] | <6.5 | <5 | – | – |
| CCC1(CC)CC(=O)c2cc(-c3nsc(-c4ccccc4OC)n3)ccc2O1 [Compound 222, 2,2-diethyl-6-(5-(2-methoxyphenyl)-1,2,4-thiadiazol-3-yl)chroman-4-one] | <6.5 | >5 | – | – |
| CCC1(CC)CC(=O)c2cc(-c3nnc(-c4ccc5c(c4)nnn5C(C)C)o3)ccc2O1 [Compound 223, 2,2-diethyl-6-(5-(1-isopropyl-1H-benzo[d][1,2,3]triazol-5-yl)-1,3,4-oxadiazol-2-yl)chroman-4-one] | <6.5 | <5 | < 75 | < 75 |
| CCC1(CC)CC(=O)c2cc(-c3nc(-c4cccc(C)c4)no3)ccc2O1 [Compound 225, 2,2-diethyl-6-(3-(m-tolyl)-1,2,4-oxadiazol-5-yl)chroman-4-one] | <6.5 | >5 | – | – |
| CCC1(CC)CC(=O)c2cc(-c3nc(-c4ccncc4F)no3)ccc2O1 [Compound 226, 2,2-diethyl-6-(3-(3-fluoropyridin-4-yl)-1,2,4-oxadiazol-5-yl)chroman-4-one] | <6.5 | <5 | – | – |
| CCC1(CC)CC(=O)c2cc(-c3nc(-c4cccc(O)c4)no3)ccc2O1 [Compound 227, 2,2-diethyl-6-[3-(3-hydroxyphenyl)-1,2,4-oxadiazol-5-yl]chroman-4-one] | >6.5 | <5 | – | – |
| COc1cccc(-c2noc(-c3ccc4c(c3)nnn4C(C)C)n2)c1 [Compound 228, 5-(1-isopropyl-1H-benzo[d][1,2,3]triazol-5-yl)-3-(3-methoxyphenyl)-1,2,4-oxadiazole] | <6.5 | <5 | – | – |
| Cc1cncc(-c2nc(-c3ccc4c(c3)nnn4C(C)C)no2)n1 [Compound 229, 3-(1-isopropyl-1H-benzo[d][1,2,3]triazol-5-yl)-5-(6-methylpyrazin-2-yl)-1,2,4-oxadiazole] | <6.5 | >5 | – | – |
| COc1ccc(-c2noc(-c3ccc4c(c3)nnn4C(C)C)n2)cc1OC [Compound 230, 3-(3,4-dimethoxyphenyl)-5-(1-isopropyl-1H-benzo[d][1,2,3]triazol-5-yl)-1,2,4-oxadiazole] | <6.5 | <5 | < 75 | < 75 |
| COc1ccccc1-c1noc(-c2ccc3c(c2)nnn3C2CCOCC2)n1 [Compound 231, 5-[3-(2-methoxyphenyl)-1,2,4-oxadiazol-5-yl]-1-(oxan-4-yl)-1H-1,2,3-benzotriazole] | <6.5 | <5 | < 75 | < 75 |
| Fc1ccc(-c2noc(-c3ccc4c(c3)nnn4C3CCCC3)n2)cc1 [Compound 232, 1-cyclopentyl-5-[3-(4-fluorophenyl)-1,2,4-oxadiazol-5-yl]-1H-1,2,3-benzotriazole] | <6.5 | <5 | < 75 | < 75 |
| Brc1ccccc1-c1noc(-c2ccc3c(c2)nnn3C2CCOCC2)n1 [Compound 233, 5-[3-(2-bromophenyl)-1,2,4-oxadiazol-5-yl]-1-(oxan-4-yl)-1H-1,2,3-benzotriazole] | <6.5 | <5 | < 75 | < 75 |
| Cc1ccc(-c2nc(-c3ccc4c(c3)nnn4C3CCCC3)no2)cc1 [Compound 235, 3-(1-cyclopentyl-1H-benzo[d][1,2,3]triazol-5-yl)-5-(p-tolyl)-1,2,4-oxadiazole] | <6.5 | <5 | – | – |
| Cc1ccc(-c2noc(-c3ccc4c(c3)nnn4C(C)C)n2)cn1 [Compound 236, 5-[3-(6-methylpyridin-3-yl)-1,2,4-oxadiazol-5-yl]-1-(propan-2-yl)-1H-1,2,3-benzotriazole] | <6.5 | <5 | < 75 | > 75 |
| CSc1ccc(-c2nc(-c3ccc4c(c3)nnn4C3CCCC3)no2)cc1 [Compound 237, 3-(1-cyclopentyl-1H-benzo[d][1,2,3]triazol-5-yl)-5-(4-(methylthio)phenyl)-1,2,4-oxadiazole] | <6.5 | <5 | < 75 | < 75 |
| OCCn1nnc2cc(-c3noc(-c4ccccc4Br)n3)ccc21 [Compound 238, 2-(5-(5-(2-bromophenyl)-1,2,4-oxadiazol-3-yl)-1H-benzo[d][1,2,3]triazol-1-yl)ethanol] | <6.5 | <5 | < 75 | < 75 |
| Cc1ccsc1-c1noc(-c2ccc3c(c2)nnn3CC2CC2)n1 [Compound 239, 1-(cyclopropylmethyl)-5-[3-(3-methylthiophen-2-yl)-1,2,4-oxadiazol-5-yl]-1H-1,2,3-benzotriazole] | <6.5 | <5 | < 75 | < 75 |
| CC(C)n1nnc2cc(-c3noc(-c4ccccc4OC(F)(F)F)n3)ccc21 [Compound 240, 3-(1-isopropyl-1H-benzo[d][1,2,3]triazol-5-yl)-5-(2-(trifluoromethoxy)phenyl)-1,2,4-oxadiazole] | <6.5 | <5 | > 75 | > 75 |
| CC(C)n1nnc2cc(-c3nc(-c4ccccn4)no3)ccc21 [Compound 241, 1-(propan-2-yl)-5-[3-(pyridin-2-yl)-1,2,4-oxadiazol-5-yl]-1H-1,2,3-benzotriazole] | <6.5 | <5 | > 75 | > 75 |
| CCCn1nnc2cc(-c3nc(-c4cccc(C(F)(F)F)c4)no3)ccc21 [Compound 242, 1-propyl-5-{3-[3-(trifluoromethyl)phenyl]-1,2,4-oxadiazol-5-yl}-1H-1,2,3-benzotriazole] | <6.5 | <5 | < 75 | < 75 |
| Cc1cccc(C)c1-c1noc(-c2ccc3c(c2)nnn3C(C)C)n1 [Compound 243, 3-(2,6-dimethylphenyl)-5-(1-isopropyl-1H-benzo[d][1,2,3]triazol-5-yl)-1,2,4-oxadiazole] | <6.5 | <5 | > 75 | > 75 |
| CC(C)n1nnc2cc(-c3nc(-c4ccncc4)no3)ccc21 [Compound 244, 1-(propan-2-yl)-5-[3-(pyridin-4-yl)-1,2,4-oxadiazol-5-yl]-1H-1,2,3-benzotriazole] | >6.5 | >5 | > 75 | > 75 |
| Cc1ccccc1-c1noc(-c2ccc3c(c2)nnn3C2CCCCC2)n1 [Compound 245, 1-cyclohexyl-5-[3-(2-methylphenyl)-1,2,4-oxadiazol-5-yl]-1H-1,2,3-benzotriazole] | <6.5 | >5 | > 75 | > 75 |
| CC(C)Oc1ccc(-c2nc(-c3ccc4c(c3)nnn4C(C)C)no2)cc1C(F)(F)F [Compound 246, 5-(4-isopropoxy-3-(trifluoromethyl)phenyl)-3-(1-isopropyl-1H-benzo[d][1,2,3]triazol-5-yl)-1,2,4-oxadiazole] | >6.5 | >5 | – | – |
